According to patent US8252737B2, “Antimicrobial peptides and methods of use” (priority 2004, dated 2012):
Square brackets hold non-standard residues; d marks the D form. Peptide text beside a SMILES is read from it.

Assay: Circular dichroism spectroscopy of helical structure (benign buffer and 50% TFE)
Format: physicochemical
Details: 25° C.; for % helix 50% TFE / % helix Benign: relative to NAL in 50% TFE; for [θ]222 Benign: benign buffer (100 mM KCl, 50 mM PO4 pH 7.0); for [θ]222 50% TFE: benign buffer diluted 1:1 (v/v) with TFE; for % helix Benign: benign buffer
Description: To determine the secondary structure of peptides in different environments, circular dichroism (CD) spectra of the peptide analogs were measured under physiologically related pH and ionic strength (100 mM KCl, 50 mM aq. PO4, pH 7 referred to as benign conditions) and also in 50% TFE to mimic the hydrophobic environment of the membrane. […] On the non-polar face, the native L-Val residue was critical in maintaining α-helical structure. […] Even the substitution with L-Ala, which is known to have the highest α-helical propensity of all 20 amino acids (34), could not stabilize the α-helical structure. […] It is noteworthy that, on the non-polar face, the magnitude of the helical content of L-peptides in benign buffer was related to the hydrophobicity of the substituting amino acids, i.e., NLL>NVL>NAL>NSL, NKL, again showing the importance of hydrophobicity on the non-polar face in maintaining the α-helical structure. […] However, whether L- or D-substitutions were made on the non-polar face, high helical structure could be induced by the hydrophobic environment of 50% TFE, a mimic of the membrane's hydrophobicity and α-helix inducing ability (Table 3).
To determine the secondary structure of the D-enantiomeric peptides in different environments, CD spectra of the peptide analogs were measured under benign conditions (100 mM KCl, 50 mM KH2PO4/K2HPO4, pH 7.4, referred to as KP buffer) and also in 50% trifluoroethanol (TFE) to mimic the hydrophobic environment of the membrane. […] However, in the presence of 50% TFE, all three L-peptides were fully folded α-helical structures with similar ellipticities and helicity (Table 4).
Characterization of Helical Structure—The mean residue molar ellipticities of peptides were determined by circular dichroism (CD) spectroscopy, using a Jasco J-720 spectropolarimeter (Jasco, Easton, Md.), at 25° C. under benign conditions (50 mM KH2PO4/K2HPO4/100 mM KCl, pH 7), as well as in the presence of an α-helix inducing solvent, 2,2,2-trifluoroethanol (TFE) (50 mM KH2PO4/K2HPO4/100 mM KCl, pH 7 buffer/50% TFE). A 10-fold dilution of a ˜500 μM stock solution of the peptide analogs was loaded into a 0.02 cm fused silica cell and its ellipticity scanned from 190 to 250 nm. The values of molar ellipticities of the peptide analogs at a wavelength of 222 nm were used to estimate the relative α-helicity of the peptides.

CC[C@H](C)[C@H](NC(=O)[C@H](C)NC(=O)[C@H](CCCCN)NC(=O)[C@H](CC(C)C)NC(=O)[C@H](C)NC(=O)[C@@H](NC(=O)[C@H](Cc1c[nH]cn1)NC(=O)[C@H](CC(C)C)NC(=O)[C@@H](NC(=O)[C@@H](NC(=O)[C@H](CCCCN)NC(=O)[C@@H](CO)NC(=O)[C@H](C)NC(=O)[C@H](CO)NC(=O)[C@H](CCCCN)NC(=O)[C@H](Cc1ccccc1)NC(=O)[C@@H](NC(=O)[C@H](CCCCN)NC(=O)[C@H](CC(C)C)NC(=O)[C@H](Cc1ccccc1)NC(=O)[C@H](CO)NC(=O)[C@H](CCCCN)NC(=O)[C@H](Cc1c[nH]c2ccccc12)NC(=O)[C@H](CCCCN)NC(C)=O)[C@@H](C)O)[C@@H](C)O)C(C)C)[C@@H](C)O)C(=O)N[C@@H](CO)C(=O)N[C@@H](CO)C(N)=O [NSD] (Ac-KWKSFLKTFKSA[dS]KTVLHTALKAISS-NH2)
% helix 50% TFE: 77% | [θ]222 Benign: −1,700 deg · cm^2 · dmol^−1 | [θ]222 50% TFE: −22,200 deg · cm^2 · dmol^−1 | % helix Benign: 6%

Ac-KWKSFLKTFKSAGKTVLHTALKAISS-NH2 [NG]
% helix 50% TFE: 84% | [θ]222 50% TFE: −24,350 deg · cm^2 · dmol^−1 | % helix Benign: 8%

CC[C@H](C)[C@H](NC(=O)[C@H](C)NC(=O)[C@H](CCCCN)NC(=O)[C@H](CC(C)C)NC(=O)[C@H](C)NC(=O)[C@@H](NC(=O)[C@H](Cc1c[nH]cn1)NC(=O)[C@H](CC(C)C)NC(=O)[C@@H](NC(=O)[C@@H](NC(=O)[C@H](CCCCN)NC(=O)[C@@H](NC(=O)[C@H](C)NC(=O)[C@H](NC(=O)[C@H](CCCCN)NC(=O)[C@H](Cc1ccccc1)NC(=O)[C@@H](NC(=O)[C@H](CCCCN)NC(=O)[C@H](CC(C)C)NC(=O)[C@H](Cc1ccccc1)NC(=O)[C@H](CO)NC(=O)[C@H](CCCCN)NC(=O)[C@H](Cc1c[nH]c2ccccc12)NC(=O)[C@H](CCCCN)NC(C)=O)[C@@H](C)O)C(C)C)C(C)C)[C@@H](C)O)C(C)C)[C@@H](C)O)C(=O)N[C@@H](CO)C(=O)N[C@@H](CO)C(N)=O [PVD] (Ac-KWKSFLKTFK[dV]AVKTVLHTALKAISS-NH2)
% helix 50% TFE: 72% | [θ]222 Benign: −2,400 deg · cm^2 · dmol^−1 | [θ]222 50% TFE: −20,800 deg · cm^2 · dmol^−1 | % helix Benign: 8%

Ac-KWKSFLKTFKSASKTVLHTALKAISS-NH2 [NSL]
% helix 50% TFE: 95% | [θ]222 Benign: −1,300 deg · cm^2 · dmol^−1 | [θ]222 50% TFE: −27,550 deg · cm^2 · dmol^−1 | % helix Benign: 4%

CC[C@H](C)[C@H](NC(=O)[C@H](C)NC(=O)[C@H](CCCCN)NC(=O)[C@H](CC(C)C)NC(=O)[C@H](C)NC(=O)[C@@H](NC(=O)[C@H](Cc1c[nH]cn1)NC(=O)[C@H](CC(C)C)NC(=O)[C@@H](NC(=O)[C@@H](NC(=O)[C@H](CCCCN)NC(=O)[C@H](C)NC(=O)[C@H](C)NC(=O)[C@H](CO)NC(=O)[C@H](CCCCN)NC(=O)[C@H](Cc1ccccc1)NC(=O)[C@@H](NC(=O)[C@H](CCCCN)NC(=O)[C@H](CC(C)C)NC(=O)[C@H](Cc1ccccc1)NC(=O)[C@H](CO)NC(=O)[C@H](CCCCN)NC(=O)[C@H](Cc1c[nH]c2ccccc12)NC(=O)[C@H](CCCCN)NC(C)=O)[C@@H](C)O)[C@@H](C)O)C(C)C)[C@@H](C)O)C(=O)N[C@@H](CO)C(=O)N[C@@H](CO)C(N)=O [NAL]
% helix 50% TFE: 100% | [θ]222 50% TFE: −28,950 deg · cm^2 · dmol^−1 | % helix Benign: 12%

CC[C@H](C)[C@H](NC(=O)[C@H](C)NC(=O)[C@H](CCCCN)NC(=O)[C@H](CC(C)C)NC(=O)[C@H](C)NC(=O)[C@@H](NC(=O)[C@H](Cc1c[nH]cn1)NC(=O)[C@H](CC(C)C)NC(=O)[C@@H](NC(=O)[C@@H](NC(=O)[C@H](CCCCN)NC(=O)[C@@H](CCCCN)NC(=O)[C@H](C)NC(=O)[C@H](CO)NC(=O)[C@H](CCCCN)NC(=O)[C@H](Cc1ccccc1)NC(=O)[C@@H](NC(=O)[C@H](CCCCN)NC(=O)[C@H](CC(C)C)NC(=O)[C@H](Cc1ccccc1)NC(=O)[C@H](CO)NC(=O)[C@H](CCCCN)NC(=O)[C@H](Cc1c[nH]c2ccccc12)NC(=O)[C@H](CCCCN)NC(C)=O)[C@@H](C)O)[C@@H](C)O)C(C)C)[C@@H](C)O)C(=O)N[C@@H](CO)C(=O)N[C@@H](CO)C(N)=O [NKD]
% helix 50% TFE: 82% | [θ]222 Benign: −2,000 deg · cm^2 · dmol^−1 | [θ]222 50% TFE: −23,600 deg · cm^2 · dmol^−1 | % helix Benign: 7%

CC[C@H](C)[C@H](NC(=O)[C@H](C)NC(=O)[C@H](CCCCN)NC(=O)[C@H](CC(C)C)NC(=O)[C@H](C)NC(=O)[C@@H](NC(=O)[C@H](Cc1c[nH]cn1)NC(=O)[C@H](CC(C)C)NC(=O)[C@@H](NC(=O)[C@@H](NC(=O)[C@H](CCCCN)NC(=O)[C@H](NC(=O)[C@H](C)NC(=O)[C@H](CO)NC(=O)[C@H](CCCCN)NC(=O)[C@H](Cc1ccccc1)NC(=O)[C@@H](NC(=O)[C@H](CCCCN)NC(=O)[C@H](CC(C)C)NC(=O)[C@H](Cc1ccccc1)NC(=O)[C@H](CO)NC(=O)[C@H](CCCCN)NC(=O)[C@H](Cc1c[nH]c2ccccc12)NC(=O)[C@H](CCCCN)NC(C)=O)[C@@H](C)O)C(C)C)[C@@H](C)O)C(C)C)[C@@H](C)O)C(=O)N[C@@H](CO)C(=O)N[C@@H](CO)C(N)=O [NVD]
% helix 50% TFE: 90% | [θ]222 Benign: −2,800 deg · cm^2 · dmol^−1 | [θ]222 50% TFE: −26,000 deg · cm^2 · dmol^−1 | % helix Benign: 10%

CC[C@H](C)[C@H](NC(=O)[C@H](C)NC(=O)[C@H](CCCCN)NC(=O)[C@H](CC(C)C)NC(=O)[C@H](C)NC(=O)[C@@H](NC(=O)[C@H](Cc1c[nH]cn1)NC(=O)[C@H](CC(C)C)NC(=O)[C@@H](NC(=O)[C@@H](NC(=O)[C@H](CCCCN)NC(=O)[C@@H](NC(=O)[C@H](C)NC(=O)[C@@H](C)NC(=O)[C@H](CCCCN)NC(=O)[C@H](Cc1ccccc1)NC(=O)[C@@H](NC(=O)[C@H](CCCCN)NC(=O)[C@H](CC(C)C)NC(=O)[C@H](Cc1ccccc1)NC(=O)[C@H](CO)NC(=O)[C@H](CCCCN)NC(=O)[C@H](Cc1c[nH]c2ccccc12)NC(=O)[C@H](CCCCN)NC(C)=O)[C@@H](C)O)C(C)C)[C@@H](C)O)C(C)C)[C@@H](C)O)C(=O)N[C@@H](CO)C(=O)N[C@@H](CO)C(N)=O [PAD] (Ac-KWKSFLKTFK[dA]AVKTVLHTALKAISS-NH2)
% helix 50% TFE: 94% | [θ]222 Benign: −3,050 deg · cm^2 · dmol^−1 | [θ]222 50% TFE: −27,300 deg · cm^2 · dmol^−1 | % helix Benign: 11%

CC[C@H](C)[C@H](NC(=O)[C@H](C)NC(=O)[C@H](CCCCN)NC(=O)[C@H](CC(C)C)NC(=O)[C@H](C)NC(=O)[C@@H](NC(=O)[C@H](Cc1c[nH]cn1)NC(=O)[C@H](CC(C)C)NC(=O)[C@@H](NC(=O)[C@@H](NC(=O)[C@H](CCCCN)NC(=O)[C@@H](NC(=O)[C@H](C)NC(=O)[C@@H](CC(C)C)NC(=O)[C@H](CCCCN)NC(=O)[C@H](Cc1ccccc1)NC(=O)[C@@H](NC(=O)[C@H](CCCCN)NC(=O)[C@H](CC(C)C)NC(=O)[C@H](Cc1ccccc1)NC(=O)[C@H](CO)NC(=O)[C@H](CCCCN)NC(=O)[C@H](Cc1c[nH]c2ccccc12)NC(=O)[C@H](CCCCN)NC(C)=O)[C@@H](C)O)C(C)C)[C@@H](C)O)C(C)C)[C@@H](C)O)C(=O)N[C@@H](CO)C(=O)N[C@@H](CO)C(N)=O [PLD] (Ac-KWKSFLKTFK[dL]AVKTVLHTALKAISS-NH2)
% helix 50% TFE: 90% | [θ]222 Benign: −2,950 deg · cm^2 · dmol^−1 | [θ]222 50% TFE: −26,100 deg · cm^2 · dmol^−1 | % helix Benign: 10%

CC[C@H](C)[C@H](NC(=O)[C@H](C)NC(=O)[C@H](CCCCN)NC(=O)[C@H](CC(C)C)NC(=O)[C@H](C)NC(=O)[C@@H](NC(=O)[C@H](Cc1c[nH]cn1)NC(=O)[C@H](CC(C)C)NC(=O)[C@@H](NC(=O)[C@@H](NC(=O)[C@H](CCCCN)NC(=O)[C@@H](NC(=O)[C@H](C)NC(=O)[C@@H](CCCCN)NC(=O)[C@H](CCCCN)NC(=O)[C@H](Cc1ccccc1)NC(=O)[C@@H](NC(=O)[C@H](CCCCN)NC(=O)[C@H](CC(C)C)NC(=O)[C@H](Cc1ccccc1)NC(=O)[C@H](CO)NC(=O)[C@H](CCCCN)NC(=O)[C@H](Cc1c[nH]c2ccccc12)NC(=O)[C@H](CCCCN)NC(C)=O)[C@@H](C)O)C(C)C)[C@@H](C)O)C(C)C)[C@@H](C)O)C(=O)N[C@@H](CO)C(=O)N[C@@H](CO)C(N)=O [PKD] (Ac-KWKSFLKTFK[dK]AVKTVLHTALKAISS-NH2)
% helix 50% TFE: 96% | [θ]222 Benign: −2,500 deg · cm^2 · dmol^−1 | [θ]222 50% TFE: −27,800 deg · cm^2 · dmol^−1 | % helix Benign: 9%
